Measurements: patent US20180203025A1, “HDL THERAPY MARKERS” (Cerenis Therapeutics Holding SA, priority 2014, published 2018)

Test system: ABCA1 mRNA in mouse macrophages (J774)
Test: ABCA1 gene expression (real-time PCR) in J774 macrophages
Type: cell-based
Procedure: Use the same amount of cDNA for all samples (4 μl of 20 μL RT reaction on 0.5 or 1 μg RNA). For each sample (to be run in triplicate), sample the following into a nuclease-free 1.5-mL microcentrifuge tube (add the volume for 2 samples more to calculate the final volume of PCR reaction mix): 2× TaqMan® Gene Expression Master Mix: 10 μl; 20× TaqMan® Gene Expression Assay: 1 μl; Nuclease free H2O: 5 μl. Cap the tube and invert it several times to mix the reaction components. Centrifuge the tube briefly.
J774 were seeded on 6× well plates (300,000 cells/well) and loaded with oxidized-LDL without the use of ^3H-cholesterol. […] Gene expression was assayed using the protocols described in Sections 8.3.2 (RNA extraction); 8.3.4 (reverse transcription), and 8.3.5 (qPCR). ABCA1 gene expression was determined with Taqman probe Mm00442646.m1 according to the manufacturer's protocol. The reference gene used is HPRT1 (Taqman probe: Mm00446968.m1).
(§1) J774 were seeded on 6 well plates (300,000 cells/well) and loaded with oxidized-LDL. […] Gene expression was assayed using the protocols described in Sections 8.3.2 (RNA extraction); 8.3.4 (reverse transcription), and 8.3.5 (qPCR). SR-BI gene (Taqman probe Mm00450234.m1), ABCG1 (Taqman probe Mm00437390.m1), SREBP1 (Taqman probe Mm01138344.m1) and ABCA1 (Taqman probe Mm00442646.m1) expression were determined according to the manufacturer's protocol. The reference gene used is HPRT1 (Taqman probe: Mm00446968.m1).
This study examined the kinetics of decreasing the mRNA level of ABCA1 in J774 macrophages. J774 were seeded on 6 well plates (300,000 cells/well) and loaded with oxidized-LDL. […] Gene expression was assayed using the protocols described in Sections 8.3.2 (RNA extraction); 8.3.4 (reverse transcription), and 8.3.5 (qPCR). ABCA1 (Taqman probe Mm00442646.m1) expression was determined according to the manufacturer's protocol. The reference gene used is HPRT1 (Taqman probe: Mm00446968.m1).
as §1, with “(qPCR).” for “(qPCR). SR-BI gene (Taqman probe Mm00450234.m1),”, “Mm00437390.m1)” for “Mm00437390.m1), SREBP1 (Taqman probe Mm01138344.m1)”
as §1, with “(qPCR).” for “(qPCR). SR-BI gene (Taqman probe Mm00450234.m1),”, “Mm00437390.m1)” for “Mm00437390.m1), SREBP1 (Taqman probe Mm01138344.m1)”
J774 were seeded on 6 well plates (600,000 cells/well) in DMEM 10% FCS. […] Medium was removed and the macrophages were washed with DMEM. […] Gene expression was assayed using the protocols described in Sections 8.3.2 (RNA extraction); 8.3.4 (reverse transcription), and 8.3.5 (qPCR). ABCG1 (Taqman probe Mm00437390.m1), ABCA1 (Taqman probe Mm00442646.m1) and SR-BI (Taqman probe Mm00450234.m1) expression were determined according to the manufacturer's protocol. The reference gene used is HPRT1 (Taqman probe: Mm00446968.m1).
J774 were seeded on 6 well plates (300,000 cells/well) in DMEM 2.5% FCS. […] The next day, medium was replaced by fresh DMEM supplemented with or without ApoA-I (25 or 250 μg/mL) to initiate ApoA-I cholesterol efflux for 2 hours. The experiment was stopped at different time points: 1) J774 stopped before addition of ApoA-I, 2) J774+DMEM (passive efflux for 2 hours), 3) J774+ApoA-I (25 μg/mL) for 2 hours and 4) J774+ApoA-I (250 μg/mL) for 2 hours. The RNA was extracted with the RiboPure™ kit according to the manufacturer's protocol.

Compound	ABCA1 mRNA level (Study O, 0.03 to 30 mM, 6 hours)	ABCA1 mRNA expression (Study A, oxidized-LDL loaded, 25, 250 and 1000 μg/mL, 6 hours)	dose for diminishing half of the ABCA1 level (Study E, 6 hours)	time to decrease half of the ABCA1 mRNA level (Study F, 25 or 250 μg/mL) [h]	ABCA1 mRNA level (Study G, 250 μg/mL, 6 hours, without cAMP)	ABCA1 mRNA level (RQ) (Study G, overnight cAMP 300 μM, then 250 μg/mL 6 hours)	effect of cAMP activation on CER-001 dose decreasing ABCA1 (Study I)	dose of maximum decrease of ABCA1 mRNA level (Study I, 6 hours)	doses at which decrease of ABCA1 mRNA level was observed (Study I, 6 hours, presence or absence of cAMP) [µg/mL]	ABCA1 mRNA level (Study J, 24 hours treatment, 250 μg/mL)	time for ABCA1 mRNA level to return to baseline after removal (Study J, after 24 hours at 250 μg/mL)	ABCA1 mRNA level (Study L, overnight pre-incubation at 250 μg/mL)
OC[C@H]1O[C@@H]2O[C@H]3[C@H](O)[C@@H](O)[C@@H](O[C@H]4[C@H](O)[C@@H](O)[C@@H](O[C@H]5[C@H](O)[C@@H](O)[C@@H](O[C@H]6[C@H](O)[C@@H](O)[C@@H](O[C@H]7[C@H](O)[C@@H](O)[C@@H](O[C@H]8[C@H](O)[C@@H](O)[C@@H](O[C@H]1[C@H](O)[C@H]2O)O[C@@H]8CO)O[C@@H]7CO)O[C@@H]6CO)O[C@@H]5CO)O[C@@H]4CO)O[C@@H]3CO [β-cyclodextrin, reference compound]	dose-dependent decrease	–	–	–	–	–	–	–	–	–	–	–
CER-001: engineered recombinant human apolipoprotein A-I HDL with sphingomyelin and DPPG; protein-to-phospholipid ratio 1:2.7, 97% Sph and 3% DPPG	–	decreased the ABCA1 mRNA at all the doses	around 7.5 μg/mL	4	decreased	1	did not change the sufficient dose of CER-001	around 15 μg/mL	4 to 6	decrease	more than 8 hours	strongly decreased the ABCA1 mRNA level
